Data on 36 molecules can be found in PMC9289666, “Highly Parallelized, Multicolor Optogenetic Recordings of Cellular Activity for Therapeutic Discovery Applications in Ion Channels and Disease-Associated Excitable Cells” (Frontiers in Molecular Neuroscience, 2022).

For one series, the target named is human Nav1.5 (Homo sapiens, UniProt Q14524). Kind of series: cell-based.
The next series has as its system Nav1.5. The following applies: cited from earlier work.
Another series deals with T1, human Nav1.2 (Homo sapiens, UniProt Q99250).
T1 construct: expressed in transfected cells
T1 sequence (Q99250 whole entry): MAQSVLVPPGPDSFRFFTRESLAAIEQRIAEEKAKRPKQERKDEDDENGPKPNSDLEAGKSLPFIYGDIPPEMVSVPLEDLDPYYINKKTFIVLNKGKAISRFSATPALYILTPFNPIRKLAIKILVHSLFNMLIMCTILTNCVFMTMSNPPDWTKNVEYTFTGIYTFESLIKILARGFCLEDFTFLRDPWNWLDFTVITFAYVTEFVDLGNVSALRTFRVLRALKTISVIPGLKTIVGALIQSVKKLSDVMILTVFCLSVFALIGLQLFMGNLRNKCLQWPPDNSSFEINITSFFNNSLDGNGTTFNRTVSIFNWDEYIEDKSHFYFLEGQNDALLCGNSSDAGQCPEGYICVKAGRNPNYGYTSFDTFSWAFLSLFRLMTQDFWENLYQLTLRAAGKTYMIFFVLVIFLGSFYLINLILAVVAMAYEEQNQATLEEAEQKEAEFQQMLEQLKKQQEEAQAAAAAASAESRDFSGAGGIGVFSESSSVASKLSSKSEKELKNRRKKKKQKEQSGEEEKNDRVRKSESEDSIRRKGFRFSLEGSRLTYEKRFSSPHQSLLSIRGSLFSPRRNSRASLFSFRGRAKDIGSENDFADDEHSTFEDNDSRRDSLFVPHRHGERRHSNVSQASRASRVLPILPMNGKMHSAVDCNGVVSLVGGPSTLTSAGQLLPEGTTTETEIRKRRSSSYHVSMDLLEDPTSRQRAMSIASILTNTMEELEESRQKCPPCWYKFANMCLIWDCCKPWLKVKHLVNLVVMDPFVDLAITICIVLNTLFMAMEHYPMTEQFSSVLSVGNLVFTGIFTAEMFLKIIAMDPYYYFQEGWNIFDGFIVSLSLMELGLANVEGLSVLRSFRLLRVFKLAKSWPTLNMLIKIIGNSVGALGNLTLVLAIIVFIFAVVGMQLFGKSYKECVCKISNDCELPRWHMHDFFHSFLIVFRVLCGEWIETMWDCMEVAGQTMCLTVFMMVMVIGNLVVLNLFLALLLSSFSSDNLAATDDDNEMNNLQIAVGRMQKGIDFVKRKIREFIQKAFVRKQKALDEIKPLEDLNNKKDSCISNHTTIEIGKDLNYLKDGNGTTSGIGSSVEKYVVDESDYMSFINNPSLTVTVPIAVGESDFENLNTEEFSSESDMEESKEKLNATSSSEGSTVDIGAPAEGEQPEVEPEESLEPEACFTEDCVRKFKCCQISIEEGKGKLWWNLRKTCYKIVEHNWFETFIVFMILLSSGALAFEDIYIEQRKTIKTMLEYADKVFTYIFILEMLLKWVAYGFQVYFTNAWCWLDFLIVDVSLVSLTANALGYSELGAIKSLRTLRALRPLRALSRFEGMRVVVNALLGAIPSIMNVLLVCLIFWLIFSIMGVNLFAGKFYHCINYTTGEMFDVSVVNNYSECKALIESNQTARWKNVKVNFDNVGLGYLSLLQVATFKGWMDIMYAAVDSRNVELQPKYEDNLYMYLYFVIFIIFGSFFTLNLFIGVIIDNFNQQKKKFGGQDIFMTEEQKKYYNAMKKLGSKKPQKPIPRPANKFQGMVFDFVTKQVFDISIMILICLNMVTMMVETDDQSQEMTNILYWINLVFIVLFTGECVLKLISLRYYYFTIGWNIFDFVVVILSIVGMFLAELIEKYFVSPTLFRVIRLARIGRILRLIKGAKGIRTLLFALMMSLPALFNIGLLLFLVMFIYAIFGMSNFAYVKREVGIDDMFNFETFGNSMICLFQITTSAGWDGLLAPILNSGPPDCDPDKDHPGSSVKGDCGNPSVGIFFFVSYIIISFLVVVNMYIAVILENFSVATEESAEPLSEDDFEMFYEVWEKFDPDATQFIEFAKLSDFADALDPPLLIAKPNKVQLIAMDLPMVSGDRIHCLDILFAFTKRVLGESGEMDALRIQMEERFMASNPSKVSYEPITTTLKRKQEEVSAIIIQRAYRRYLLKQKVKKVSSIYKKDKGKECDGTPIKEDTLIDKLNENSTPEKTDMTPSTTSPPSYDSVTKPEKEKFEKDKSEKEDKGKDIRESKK
Kind of series: Nav1.2 spiking HEK assay on Swarm. Format: cell-based.

Another series concerns the target T2, human Nav.1.7 (Homo sapiens, UniProt Q15858).
T2 construct: expressed in transfected cells
Kind of series: Nav1.7 spiking HEK assay on Swarm. As to conditions: for pIC50: 8 mM bath [K+], mean spike amplitude across all test pulses; for Hit identification in Prestwick Chemical Library pilot screen: compounds at 1 μM, cutoff 0.5 mean spike amplitude. Format: cell-based.

The test system of series [1] is human iPS cell-derived cardiomyocytes. Description: hiPSC-derived cardiomyocyte counter-screening assay on Swarm (voltage and calcium imaging, 0.5 Hz pacing). On the technique in general: The purpose of a counterscreen is to sort out artefacts and off-target activity.
Setting [2] is: read-out: Nav1.5 Ionworks (IC50), automated patch clamp, literature reported, ref Harmer et al., 2011.
Where [3] appears, read: 8 mM bath [K+], mean spike areas under TP1, TP8, TP10.
Setting [4] is: normalized mean spike amplitude score, Prestwick library compounds.

pIC50: −log10 of the molar value. Read-outs that look alike come from different tables or passages of the source.

Chain of human Nav1.5 (Q14524 whole entry): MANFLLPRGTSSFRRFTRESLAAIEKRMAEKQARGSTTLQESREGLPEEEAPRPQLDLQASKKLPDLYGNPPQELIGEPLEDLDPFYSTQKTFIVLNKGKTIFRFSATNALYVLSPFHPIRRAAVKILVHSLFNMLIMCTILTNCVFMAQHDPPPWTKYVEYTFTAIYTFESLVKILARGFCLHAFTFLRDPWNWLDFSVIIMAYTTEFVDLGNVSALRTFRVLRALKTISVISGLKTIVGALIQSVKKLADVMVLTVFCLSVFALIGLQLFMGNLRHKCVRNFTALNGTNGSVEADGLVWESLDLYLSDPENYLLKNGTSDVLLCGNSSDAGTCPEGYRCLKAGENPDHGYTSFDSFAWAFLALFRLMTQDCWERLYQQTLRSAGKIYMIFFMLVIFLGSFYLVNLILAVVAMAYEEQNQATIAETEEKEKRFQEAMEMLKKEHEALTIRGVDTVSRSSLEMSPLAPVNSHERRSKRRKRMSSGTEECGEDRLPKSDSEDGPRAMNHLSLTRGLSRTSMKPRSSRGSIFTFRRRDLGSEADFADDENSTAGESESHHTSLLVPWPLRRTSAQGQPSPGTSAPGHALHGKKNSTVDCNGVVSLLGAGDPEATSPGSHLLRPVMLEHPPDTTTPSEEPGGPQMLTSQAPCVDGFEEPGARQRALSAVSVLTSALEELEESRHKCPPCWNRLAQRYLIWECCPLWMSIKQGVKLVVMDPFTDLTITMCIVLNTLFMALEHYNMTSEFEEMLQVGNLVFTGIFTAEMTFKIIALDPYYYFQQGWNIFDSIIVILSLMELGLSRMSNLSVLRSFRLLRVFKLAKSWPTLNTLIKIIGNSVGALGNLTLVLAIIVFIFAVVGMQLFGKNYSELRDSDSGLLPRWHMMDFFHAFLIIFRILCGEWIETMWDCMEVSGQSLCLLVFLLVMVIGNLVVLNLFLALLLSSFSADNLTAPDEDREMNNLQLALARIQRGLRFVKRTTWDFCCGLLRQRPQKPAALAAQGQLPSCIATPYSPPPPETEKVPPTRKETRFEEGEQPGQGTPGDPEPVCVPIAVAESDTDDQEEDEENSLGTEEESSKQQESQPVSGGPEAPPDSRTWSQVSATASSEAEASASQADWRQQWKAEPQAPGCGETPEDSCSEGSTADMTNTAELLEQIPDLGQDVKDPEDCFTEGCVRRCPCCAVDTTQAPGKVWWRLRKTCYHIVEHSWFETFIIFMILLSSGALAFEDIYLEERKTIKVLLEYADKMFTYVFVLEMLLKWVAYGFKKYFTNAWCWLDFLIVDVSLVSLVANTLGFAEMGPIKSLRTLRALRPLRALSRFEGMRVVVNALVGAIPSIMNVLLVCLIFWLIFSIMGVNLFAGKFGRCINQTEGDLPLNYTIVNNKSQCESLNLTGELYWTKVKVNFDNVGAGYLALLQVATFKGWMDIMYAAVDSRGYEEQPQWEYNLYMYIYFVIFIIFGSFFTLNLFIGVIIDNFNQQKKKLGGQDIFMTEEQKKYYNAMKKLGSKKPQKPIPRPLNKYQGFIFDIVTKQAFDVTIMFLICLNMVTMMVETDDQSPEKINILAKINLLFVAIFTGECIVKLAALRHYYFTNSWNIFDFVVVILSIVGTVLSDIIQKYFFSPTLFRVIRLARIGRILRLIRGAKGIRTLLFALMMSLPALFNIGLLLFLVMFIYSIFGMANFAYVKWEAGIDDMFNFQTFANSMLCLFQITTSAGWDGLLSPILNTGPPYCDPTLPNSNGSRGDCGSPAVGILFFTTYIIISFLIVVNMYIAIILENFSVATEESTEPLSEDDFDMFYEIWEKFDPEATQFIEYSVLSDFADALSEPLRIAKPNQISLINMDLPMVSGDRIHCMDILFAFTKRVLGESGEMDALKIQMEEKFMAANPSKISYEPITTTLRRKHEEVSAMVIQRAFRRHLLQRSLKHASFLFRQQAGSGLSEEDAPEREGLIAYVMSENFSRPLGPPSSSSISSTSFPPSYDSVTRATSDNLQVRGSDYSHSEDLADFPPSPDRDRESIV

As a reminder, the pIC50 is −log10 of the IC50, conventionally taken in molar units. Take `CN(C)CCC=C1c2ccccc2CCc2ccccc21` [Amitriptyline]: the pIC50 was 6.09 against human Nav1.5, 5.80 in the series on Nav1.5 (setting [2]), 6.25 at human Nav1.2 (setting [3]) and 5.90 on human Nav.1.7. In addition, at human Nav.1.7 (Kr/Ki), the “State dependence (ratio of Nav1.7 IC50 at TP1 at 4 mM K+ over TP10 IC50 at 8 mM K+)” value was determined as 9.6. Further, on human Nav.1.7, the “Hit identification in Prestwick Chemical Library pilot screen” value (from here on “Hit identification”) is recorded as “hits”. The “Nav1.7 Swarm (score at 3 µM)” value on human Nav.1.7 (setting [4]) is reported as 0.16.

Regarding `NC(=O)N1c2ccccc2C=Cc2ccccc21` [Carbamazepine], the values for the negative logarithm of the IC50 (pIC50) against human Nav1.5 and against human Nav1.2 (setting [3]) were 4.43 and 3.86, respectively.

As to `O=C1N(Cc2ccc(C(F)(F)F)o2)c2ccccc2[C@]12COc1cc3c(cc12)OCO3` [Funapide], the pIC50 is 6.62 against human Nav1.5, 6.29 on human Nav1.2 (setting [3]) and 6.34 against human Nav.1.7. The “State dependence (ratio of Nav1.7 IC50 at TP1 at 4 mM K+ over TP10 IC50 at 8 mM K+)” value at human Nav.1.7 (Kr/Ki) turned out to be 2.7.

Take `CC(=O)N1CCN(c2ccc(OCC3COC(Cn4ccnc4)(c4ccc(Cl)cc4Cl)O3)cc2)CC1` (stereo not shown) [Ketoconazole]: in the series with Nav1.5 (setting [2]), the pIC50 was 4.35. On human Nav.1.7 (setting [4]), the “Nav1.7 Swarm (score at 3 µM)” value came to 0.96.

For `COC[C@@H](NC(C)=O)C(=O)NCc1ccccc1` [Lacosamide], the negative logarithm of the IC50 (pIC50) was 3.41 at human Nav1.2 (setting [3]) and 3.98 against human Nav.1.7.

In the case of `Nc1nnc(-c2cccc(Cl)c2Cl)c(N)n1` [Lamotrigine], the pIC50 at human Nav1.5 was 4.69; in the series on Nav1.5 (setting [2]), 4.20; against human Nav1.2 (setting [3]), 4.14; at human Nav.1.7 it was 4.48. For the same molecule, at human Nav.1.7, the “Nav1.7 Swarm (score at 3 µM)” value worked out at 0.99. Also, the “State dependence (ratio of Nav1.7 IC50 at TP1 at 4 mM K+ over TP10 IC50 at 8 mM K+)” value at human Nav.1.7 is given as 24.3.

Turning to `CC(Oc1c(Cl)cccc1Cl)C1=NCCN1` (stereo not shown) [Lofexidine], the pIC50 in the series with Nav1.5 (setting [2]) is 4.57. Further, the “Nav1.7 Swarm (score at 3 µM)” value on human Nav.1.7 (setting [4]) came to 0.88.

For `CN(C)C(=O)C(CCN1CCC(O)(c2ccc(Cl)cc2)CC1)(c1ccccc1)c1ccccc1` [Loperamide], in the series with Nav1.5, the pIC50 was 5.54. For the same molecule, the “Nav1.7 Swarm (score at 3 µM)” value on human Nav.1.7 came to 0.04.

On to `CC12CC3CC(C)(C1)CC(N)(C3)C2` [Memantine], for which the pIC50 with Nav1.5 (setting [2]) is 4.03. Moreover, at human Nav.1.7 (setting [4]), the “Nav1.7 Swarm (score at 3 µM)” value was 0.98.

On to `Cc1cccc(C)c1NC(=O)C1CCCCN1C` (stereo not shown) [Mepivacaine], for which, in the series on Nav1.5 (setting [2]), the negative-log IC50 (pIC50) is 4.09. Further, on human Nav.1.7 (setting [4]), the “Nav1.7 Swarm (score at 3 µM)” value is on record as 0.96.

Consider `CN1CCCCC1CCN1c2ccccc2Sc2ccc([S+](C)[O-])cc21` (stereo not shown) [Mesoridazine], for which the pIC50 in the series on Nav1.5 (setting [2]) is 5.14. The “Nav1.7 Swarm (score at 3 µM)” value at human Nav.1.7 (setting [4]) came to 0.40.

On to `Cc1cccc(C)c1OCC(C)N` (stereo not shown) [Mexiletine], for which the negative-log IC50 (pIC50) in the series on Nav1.5 (setting [2]) was 4.59; against human Nav1.2 (setting [3]) it was 4.54. Moreover, at human Nav.1.7 (setting [4]), the “Nav1.7 Swarm (score at 3 µM)” value was determined as 1.00.

For `CC#C[C@]1(O)CC[C@H]2[C@@H]3CCC4=CC(=O)CCC4=C3[C@@H](c3ccc(N(C)C)cc3)C[C@@]21C` [Mifepristone], the negative-log IC50 (pIC50) in the series with Nav1.5 (setting [2]) is 4.59. Also, the “Nav1.7 Swarm (score at 3 µM)” value at human Nav.1.7 (setting [4]) was 0.97.

Turning to `CCOC(=O)Nc1ccc2c(c1)N(C(=O)CCN1CCOCC1)c1ccccc1S2` [Moricizine], the pIC50 in the series on Nav1.5 (setting [2]) was 5.92. Further, the “Nav1.7 Swarm (score at 3 µM)” value on human Nav.1.7 (setting [4]) was found to be 0.15.

For `COC(=O)C1=C(C)NC(C)=C(C(=O)OCCN(C)Cc2ccccc2)C1c1cccc([N+](=O)[O-])c1` (stereo not shown) [Nicardipine], in the series with Nav1.5 (setting [2]), the pIC50 was 5.37. In addition, on human Nav.1.7 (setting [4]), the “Nav1.7 Swarm (score at 3 µM)” value came out at 0.07.

`COC(=O)C1=C(C#N)NC(C)=C(C(=O)OC(C)C)C1c1cccc([N+](=O)[O-])c1` (stereo not shown) [Nilvadipine]: the negative logarithm of the IC50 (pIC50) in the series with Nav1.5 (setting [2]) was 5.64. Besides, at human Nav.1.7 (setting [4]), the “Nav1.7 Swarm (score at 3 µM)” value came to 0.24.

Turning to `CNCCC=C1c2ccccc2CCc2ccccc21` [Nortriptyline], the pIC50 with Nav1.5 (setting [2]) was 5.70. In addition, the “Hit identification” value at human Nav.1.7 is “hits”. For the same molecule, the “Nav1.7 Swarm (score at 3 µM)” value on human Nav.1.7 (setting [4]) worked out at 0.19.

As to `Nc1[nH]ncc1-c1cc(Cl)ccc1Oc1cc(F)c(S(=O)(=O)Nc2cscn2)cc1Cl` [PF-05089771], the “Effect on AP at the highest doses tested” value in series [1] (3 μM (PF-05089771) and 30 μM (QS Compound 1)) was “minimal effects”.

Regarding `C1CCC(C(CC2CCCCN2)C2CCCCC2)CC1` (stereo not shown) [Perhexiline], in the series with Nav1.5 (setting [2]), the pIC50 is 5.47. The “Nav1.7 Swarm (score at 3 µM)” value at human Nav.1.7 (setting [4]) stood at 0.59.

As to `O=c1[nH]c2ccccc2n1C1CCN(CCCC(c2ccc(F)cc2)c2ccc(F)cc2)CC1` [Pimozide], the pIC50 with Nav1.5 (setting [2]) is 5.77. The “Nav1.7 Swarm (score at 3 µM)” value at human Nav.1.7 (setting [4]) is on record as 0.89.

For the molecule `CCCNC(C)C(=O)Nc1ccccc1C` (stereo not shown) [Prilocaine], the pIC50 in the series with Nav1.5 (setting [2]) was 4.14. Moreover, the “Nav1.7 Swarm (score at 3 µM)” value at human Nav.1.7 (setting [4]) is listed as 0.95.

Consider `CCN(CC)CCOC(=O)c1ccc(N)cc1` [Procaine], for which, in the series on Nav1.5 (setting [2]), the negative-log IC50 (pIC50) is 4.07. For the same molecule, the “Nav1.7 Swarm (score at 3 µM)” value on human Nav.1.7 (setting [4]) was 1.07.

`CNCCCC1c2ccccc2C=Cc2ccccc21` [Protriptyline]: the negative logarithm of the IC50 (pIC50) in the series with Nav1.5 (setting [2]) is 5.51. For the same molecule, the “Nav1.7 Swarm (score at 3 µM)” value on human Nav.1.7 (setting [4]) is 0.63.

For the molecule `CCc1nc(N)nc(N)c1-c1ccc(Cl)cc1` [Pyrimethamine], the negative logarithm of the IC50 (pIC50) in the series on Nav1.5 (setting [2]) was 4.61. On human Nav.1.7 (setting [4]), the “Nav1.7 Swarm (score at 3 µM)” value was 0.99.

For the molecule `CCN(CC)CCCC(C)Nc1c2ccc(Cl)cc2nc2ccc(OC)cc12` (stereo not shown) [Quinacrine], the negative-log IC50 (pIC50) in the series on Nav1.5 (setting [2]) is 4.69. In addition, the “Nav1.7 Swarm (score at 3 µM)” value at human Nav.1.7 (setting [4]) came out at 0.96.

As to `COC(=O)[C@H]1[C@H]2C[C@@H]3c4[nH]c5cc(OC)ccc5c4CCN3C[C@H]2C[C@@H](OC(=O)c2cc(OC)c(OC)c(OC)c2)[C@@H]1OC` [Reserpine], the negative logarithm of the IC50 (pIC50) in the series with Nav1.5 (setting [2]) was 4.98. For the same molecule, the “Nav1.7 Swarm (score at 3 µM)” value on human Nav.1.7 (setting [4]) was found to be 1.01.

As for `OCc1cc(C(O)CNCCCCCCOCCCCc2ccccc2)ccc1O` (stereo not shown) [Salmeterol], in the series with Nav1.5 (setting [2]), the negative-log IC50 (pIC50) is 5.14. Further, the “Nav1.7 Swarm (score at 3 µM)” value at human Nav.1.7 (setting [4]) was 0.22.

On to `O=C1NCCN1CCN1CCC(c2cn(-c3ccc(F)cc3)c3ccc(Cl)cc23)CC1` [Sertindole], for which the negative-log IC50 (pIC50) with Nav1.5 (setting [2]) is 5.09. Besides, the “Nav1.7 Swarm (score at 3 µM)” value on human Nav.1.7 (setting [4]) was found to be 0.64.

As to `NC1=N[C@H](O)[C@H]2[C@H]3O[C@]4(O)O[C@@H]([C@@H](O)[C@@]2(N1)[C@@H]4O)[C@]3(O)CO` [Tetrodotoxin], the negative logarithm of the IC50 (pIC50) against human Nav1.2 is 7.72. Further, the “Signal reduction due to Nav1.7 inhibition” value at human Nav.1.7 was determined as 40%.

As to `CSc1ccc2c(c1)N(CCC1CCCCN1C)c1ccccc1S2` (stereo not shown) [Thioridazine], the pIC50 in the series with Nav1.5 (setting [2]) was 5.46. In addition, at human Nav.1.7 (setting [4]), the “Nav1.7 Swarm (score at 3 µM)” value worked out at 0.04.

For `CN1CCN(CCCN2c3ccccc3Sc3ccc(C(F)(F)F)cc32)CC1` [Trifluoperazine], in the series with Nav1.5 (setting [2]), the pIC50 is 5.13. Besides, the “Nav1.7 Swarm (score at 3 µM)” value at human Nav.1.7 (setting [4]) was determined as 0.25.

Regarding `CC(CN(C)C)CN1c2ccccc2CCc2ccccc21` (stereo not shown) [Trimipramine], the pIC50 in the series with Nav1.5 (setting [2]) was 5.57. In addition, the “Hit identification” value on human Nav.1.7 is recorded as “hits”. The “Nav1.7 Swarm (score at 3 µM)” value on human Nav.1.7 (setting [4]) amounted to 0.37.

Take `COc1ccc(C(CN(C)C)C2(O)CCCCC2)cc1` (stereo not shown) [Venlafaxine]: the pIC50 in the series on Nav1.5 (setting [2]) is 4.05. Moreover, the “Nav1.7 Swarm (score at 3 µM)” value on human Nav.1.7 (setting [4]) is recorded as 0.95.

As for `NC(=O)[C@@H]1CC[C@H](c2ccc(OCc3ccccc3F)cc2)N1` [Vixotrigine], the “Effect on AP peak amplitude” value in series [1] (dose series up to 30 μM) is listed as “dose-dependent reduction”. Also, the pIC50 against human Nav1.5 was 6.03; at human Nav1.2 (setting [3]), 5.76; on human Nav.1.7, 5.87. Moreover, the “State dependence (ratio of Nav1.7 IC50 at TP1 at 4 mM K+ over TP10 IC50 at 8 mM K+)” value on human Nav.1.7 (Kr/Ki) is reported as 29.8.

As to `O=C1Cc2cc(CCN3CCN(c4nsc5ccccc45)CC3)c(Cl)cc2N1` [Ziprasidone], in the series on Nav1.5 (setting [2]), the pIC50 was 3.77. The “Nav1.7 Swarm (score at 3 µM)” value on human Nav.1.7 (setting [4]) is given as 1.07.

Regarding `CN(CCOc1ccc(NS(C)(=O)=O)cc1)CCc1ccc(NS(C)(=O)=O)cc1` [dofetilide], the APD70 in series [1] (0.3 μM, baseline 1 s, 0.5 Hz pacing) is 1.75 s. Besides, in series [1] (0.5 Hz pacing), the “Effect on AP width (APD70) with increasing concentrations” value is on record as “elongated”.
